Among the data in US20250255889A1, “METHODS FOR TREATMENT SELECTION FOR CHRONIC LYMPHOCYTIC LEUKEMIA (CLL)” (The Broad Institute, Inc., priority 2022, published 2025) are direction and drug-induced apoptotic priming values, retold here.

For this assay, the system named is primary CLL samples (CD19+ and CD5+ cells). Put plainly: High-throughput dynamic BH3 profiling (HT-DBP): drug-induced apoptotic priming (delta priming), cytochrome c release after BH3 peptide. The class given is cell-based, human. As to conditions: for drug-induced apoptotic priming: across CLL subtypes, 65 primary CLL samples, 20 hours drug. Here is the method:
By “delta priming” is meant the difference in priming of a cell for apoptosis measured in the presence of an agent for treating chronic lymphocytic leukemia relative to priming of the cell in the presence of an inert carrier. In embodiments, the inert carrier is DMSO.
Dynamic BH3 Profiling Dynamic BH3 profiling (DBP) is a drug screening assay that measures the relative priming of cells in a biological sample for cell death by apoptosis in the presence of a specific compound and/or a pro-apoptotic peptide. By “Dynamic BH3 profiling” is meant measuring drug-induced changes in mitochondrial apoptotic priming. Mitochondrial apoptotic priming is a measure of how close to the apoptotic threshold a cell is. A highly primed cell has relatively less anti-apoptotic binding site availability and is closer to the apoptotic threshold than a poorly primed cell, which has more anti-apoptotic availability to buffer an apoptotic assault and is further from the apoptotic threshold. BH3 peptides derived from the BH3 domain of pro-apoptotic BH3-only proteins provoke a response from viable mitochondria. Cytochrome c released from the mitochondria after a short incubation with BH3 peptide is used as a surrogate for priming. In general, the more sensitive a mitochondrion is to a BH3 peptide, the more primed it is. A drug treatment that enhances priming will cause mitochondria to undergo MOMP more easily when incubated with a fixed concentration of a promiscuously binding BH3 peptide, such as BIM BH3 peptide, compared to control-treated cells. See, for example, Potter, D. S. & Letai, A. To prime, or not to prime: that is the question. Cold Spring Harb. Symp. Quant. Biol. 81, 131-140 (2016); Montero, J. et al. Drug-induced death signaling strategy rapidly predicts cancer response to chemotherapy. Cell 160, 977-989 (2015); Daniels, V. W. et al. Metabolic perturbations sensitize triple-negative breast cancers to apoptosis induced by BH3 mimetics. Sci.
Dynamic BH3 profiling and peptides for use therein are described, for example, in Certo, et al., “Mitochondria primed by death signals determine cellular addiction to antiapoptotic BCL-2 family members,” Cancer Cell, 9:351-365 (2006); and in Foight, et al. “Designed BH3 Peptides with High Affinity and Specificity for Targeting Mcl-1 in Cells,” ACS Chemical Biology, 9:1962-1968 (2014), the disclosures of which are incorporated herein by reference in their entireties for all purposes. The DBP assay enables one to compare the response of a patient tumor sample to a specific drug relative to other drugs and relative to an inert control (e.g., DMSO).
To address the challenge of selecting a proper treatment for a chronic lymphocytic leukemia, experiments were undertaken to optimize high-throughput dynamic BH3 profiling (HT-DBP) for evaluation of the drug sensitivities of CLL samples (FIGS. 1, 13, 5A, 5B, 6A, 6B, and 7A-7C).

Setting [1] is: peptide BAD 0.3 uM, feature EC-i.
Where [2] appears, read: peptide PUMA 1 uM, feature gain_7q22.1.
The mark [3] stands for this setting: peptide PUMA 1 uM, feature loss_14q32.12.
[4] abbreviates: peptide BIM 0.01 uM, feature EC-m2.
Setting [5] is: peptide BIM 0.01 uM, feature loss_17q23.1.
Where [6] appears, read: peptide BAD 0.3 uM, feature IGLV321_R110.
The mark [7] stands for this setting: peptide BAD 0.3 uM, feature NOTCH1.
Setting [8] is: peptide BAD 0.3 uM, feature RPS15.
[9] abbreviates: peptide BAD 0.3 uM, feature loss_6q.
The mark [10] stands for this setting: peptide BIM 0.01 uM, feature IGLV321_R110.
Setting [11] is: peptide BIM 0.01 uM, feature RPS15.
Where [12] appears, read: peptide BIM 0.01 uM, feature loss_6q.
[13] abbreviates: peptide MS1 2.5 uM, feature IGLV321_R110.
Setting [14] is: peptide MS1 2.5 uM, feature NOTCH1.
The mark [15] stands for this setting: peptide MS1 2.5 uM, feature RPS15.
The mark [16] stands for this setting: peptide MS1 2.5 uM, feature loss_6q.
Where [17] appears, read: peptide PUMA 1 uM, feature IGLV321_R110.
Setting [18] is: peptide PUMA 1 uM, feature NOTCH1.
The mark [19] stands for this setting: peptide PUMA 1 uM, feature RPS15.
Where [20] appears, read: peptide PUMA 1 uM, feature loss_6q.
Setting [21] is: peptide BIM 0.01 uM, feature NOTCH1.
The mark [22] stands for this setting: peptide PUMA 1 uM, feature loss_17q23.1.
The mark [23] stands for this setting: peptide BAD 0.3 uM, feature loss_17p13.1.
[24] abbreviates: peptide BAD 0.3 uM, feature loss_17q23.1.

As to `Cn1c(CCCC(=O)O)nc2cc(N(CCCl)CCCl)ccc21` [Bendamustine], the direction entry is recorded as “Sensitive” (Feature loss_5p15.33); “Sensitive” (Feature loss_7p22.2); “Sensitive” (Feature loss_12p13.31a); “Sensitive” (Feature loss_14q32.12); “Sensitive” under setting [1]; “Sensitive” (peptide BAD 0.3 uM, feature loss_1q42.13). The direction entry is “Sensitive” (peptide BAD 0.3 uM, feature loss_5p15.33); “Sensitive” (peptide BAD 0.3 uM, feature loss_7p22.2); “Sensitive” (peptide BAD 0.3 uM, feature loss_12p13.31a); “Sensitive” (peptide BAD 0.3 uM, feature loss_14q32.12); “Sensitive” (peptide BAD 0.3 uM, feature loss_16p11.2); “Sensitive” (peptide MS1 2.5 uM, feature BIRC3). For the same compound, the direction result by setting is: (peptide MS1 2.5 uM, feature CNOT3) “Sensitive”; (peptide MS1 2.5 uM, feature loss_9p21.3) “Sensitive”; (peptide MS1 2.5 uM, feature loss_17q11.2) “Sensitive”; under setting [2], “Sensitive”; under setting [3], “Sensitive”.
On to `CC(C)C[C@H](NC(=O)[C@H](CCc1ccccc1)NC(=O)CN1CCOCC1)C(=O)N[C@@H](Cc1ccccc1)C(=O)N[C@@H](CC(C)C)C(=O)[C@@]1(C)CO1` [Carfilzomib], for which the direction entry under setting [4] was “Sensitive”; the direction result under setting [5] is “Sensitive”; the direction entry (peptide PUMA 1 uM, feature MYD88) is on record as “Sensitive”; the direction entry under setting [2] is reported as “Sensitive”; the direction entry (peptide PUMA 1 uM, feature i-CLL) is “Sensitive”; the direction result (peptide PUMA 1 uM, feature loss_3p21.31) is “Sensitive”. Moreover, the direction result under setting [3] was “Sensitive”.
Take `CCS(=O)(=O)N1CCN(c2ccc(Nc3ncc(C(N)=O)c(NC4CC4)n3)cc2)CC1` [Cerdulatinib]: the drug-induced apoptotic priming entry is recorded as “high priming”. The direction result (Feature loss_13q14.13) is “Sensitive”. Also, the direction entry (Feature loss_13q14.3) is given as “Sensitive”. Moreover, where the note is “peptide BAD 0.3 uM, feature loss_13q14.13”, the direction entry is listed as “Sensitive”. Also, the direction result (peptide BAD 0.3 uM, feature loss_13q14.3) is given as “Sensitive”. In addition, the direction entry (peptide BIM 0.01 uM, feature KMT2D) is “Sensitive”. Besides, the direction entry (peptide BIM 0.01 uM, feature loss_13q14.13) is “Sensitive”. In addition, the direction result (peptide BIM 0.01 uM, feature loss_13q14.3) is reported as “Sensitive”. In addition, the direction entry (peptide MS1 2.5 uM, feature loss_13q14.13) was “Sensitive”. Under “peptide PUMA 1 uM, feature loss_13q14.13”, the direction result was “Sensitive”. For the same compound, the direction result (peptide PUMA 1 uM, feature loss_13q14.3) is “Sensitive”.
For the compound `C[C@@H](Oc1cc(-c2cnn(C3CCNCC3)c2)cnc1N)c1c(Cl)ccc(F)c1Cl` [Crizotinib], the direction entry is, setting by setting: under setting [1], “Resistant”; (peptide BAD 0.3 uM, feature EC-u1) “Sensitive”; under setting [6], “Resistant”; under setting [7], “Resistant”; (peptide BAD 0.3 uM, feature RFX7) “Sensitive”; under setting [8], “Resistant”. Further, the direction result runs as follows: (peptide BAD 0.3 uM, feature ZMYM3) “Sensitive”; under setting [9], “Resistant”; (peptide BAD 0.3 uM, feature loss_11q22.3) “Sensitive”; (peptide BAD 0.3 uM, feature n-CLL) “Sensitive”; (peptide BIM 0.01 uM, feature EC-i) “Resistant”; under setting [10], “Resistant”. The direction result is, setting by setting: (peptide BIM 0.01 uM, feature NOTCHI) “Resistant”; under setting [11], “Resistant”; (peptide BIM 0.01 uM, feature SF3B1) “Sensitive”; under setting [12], “Resistant”; under setting [13], “Resistant”; under setting [14], “Resistant”. Moreover, the direction result (peptide MS1 2.5 uM, feature RFX7) is on record as “Resistant”; the direction result under setting [15] was “Resistant”; the direction entry (peptide MS1 2.5 uM, feature ZMYM3) is reported as “Resistant”; the direction result under setting [16] is listed as “Resistant”; the direction result (peptide MS1 2.5 uM, feature priortrt_Post) is given as “Resistant”; the direction result (peptide PUMA 1 uM, feature EC-i) was “Resistant”. The direction entry runs as follows: under setting [17], “Resistant”; under setting [18], “Resistant”; under setting [19], “Resistant”; under setting [20], “Resistant”.
`Cc1nc(Nc2ncc(C(=O)Nc3c(C)cccc3Cl)s2)cc(N2CCN(CCO)CC2)n1` [Dasatinib, dasatinib]: the direction result is reported as “Resistant” under setting [6]; “Resistant” under setting [7]; “Resistant” under setting [8]; “Resistant” under setting [9]; “Resistant” under setting [10]; “Resistant” under setting [21]. In addition, the direction entry is, setting by setting: under setting [11], “Resistant”; under setting [12], “Resistant”; under setting [5], “Sensitive”; (peptide MS1 2.5 uM, feature EC-i) “Resistant”; under setting [13], “Resistant”; under setting [14], “Resistant”. Moreover, the direction result was “Resistant” under setting [15]; “Resistant” under setting [16]; “Sensitive” (peptide MS1 2.5 uM, feature tri_12); “Resistant” under setting [17]; “Resistant” under setting [18]; “Resistant” under setting [19]. Besides, the direction result is, setting by setting: under setting [20], “Resistant”; under setting [22], “Sensitive”.
Take `C[C@H](Nc1ncnc2[nH]cnc12)c1cc2cccc(Cl)c2c(=O)n1-c1ccccc1` [Duvelisib, duvelisib]: the drug-induced apoptotic priming result was “high priming”. Besides, under setting [23], the direction entry is “Sensitive”. In addition, under setting [24], the direction entry is “Sensitive”. Also, the direction result under setting [4] is on record as “Sensitive”. Under setting [21], the direction result is “Resistant”. For the same compound, the direction entry (peptide MS1 2.5 uM, feature loss_17p13.1) was “Sensitive”. Also, the direction result (peptide MS1 2.5 uM, feature loss_17q23.1) was “Sensitive”. Moreover, for the setting “peptide PUMA 1 uM, feature EC-m2”, the direction entry is recorded as “Sensitive”. Moreover, the direction result (peptide PUMA 1 uM, feature loss_17p13.1) was “Sensitive”. Further, the direction result under setting [22] is recorded as “Sensitive”.
`c1cn2cc(-c3ccc4cn[nH]c4c3)nc(Nc3ccc(N4CCOCC4)cc3)c2n1` [Entospletinib]: the direction result (Feature tri_12) is “Sensitive”; the direction entry under setting [23] is on record as “Sensitive”; the direction result under setting [24] is listed as “Sensitive”; the direction result (peptide BAD 0.3 uM, feature loss_19p13.11) is “Sensitive”; the direction entry (peptide BIM 0.01 uM, feature tri_12) was “Sensitive”; the direction result (peptide MS1 2.5 uM, feature loss_19p13.11) was “Sensitive”. Under “peptide PUMA 1 uM, feature loss_19p13.11”, the direction entry is reported as “Sensitive”.
